Values of other authors in article PMC5641599 (Molecular Metabolism, 2017).
Read-outs that look alike come from different tables or passages of the source.

Tested on: MC4R variants
Conditions: cited from earlier work

Substance: NDP-MSH
- Binding Bmax (% of WT) (MC4R I301T, ref Vaisse C, J Clin Invest, 2000): 20.0 % of WT
- Binding Bmax (% of WT) (MC4R I301T, ref Xiang Z, Biochemistry, 2006): 35.6 % of WT
- Binding Bmax (% of WT) (MC4R I316S, ref Xiang Z, Biochemistry, 2006): 55.6 % of WT
- Binding Bmax (% of WT) (MC4R I316S, ref Yeo GS, Hum Mol Genet, 2003): 28.0 % of WT
- Binding Bmax (% of WT) (MC4R I317T, ref Nijenhuis WA, J Biol Chem, 2003): 42.0 % of WT
- Binding Bmax (% of WT) (MC4R I317T, ref VanLeeuwen, J Biol Chem, 2003): 66.7 % of WT
- Binding Bmax (% of WT) (MC4R I317T, ref Xiang Z, Biochemistry, 2006): 20.0 % of WT
- Binding Bmax (% of WT) (MC4R I317V, ref Fan ZC, J Cell Mol Med, 2009): 94.0 % of WT
- Binding Bmax (% of WT) (MC4R I317V, ref Xiang Z, Biochemistry, 2010): 91.9 % of WT
- Binding Bmax (% of WT) (MC4R L54P, ref Tan K, Endocrinology, 2009): 32.5 % of WT
- Binding Bmax (% of WT) (MC4R L106P, ref Xiang Z, Biochemistry, 2006): 2.2 % of WT
- Binding Bmax (% of WT) (MC4R L106P, ref Yeo GS, Hum Mol Genet, 2003): 18.7 % of WT
- Binding Bmax (% of WT) (MC4R L304F, ref van der Berg L, Obesity, 2011): 40.0 % of WT
- Binding Bmax (% of WT) (MC4R L325F, ref Fan ZC, J Cell Mol Med, 2009): 92.0 % of WT
- Binding Bmax (% of WT) (MC4R L325F, ref Larsen LH, J Clin Endocrinol Metab, 2005): 0.0 % of WT
- Binding Bmax (% of WT) (MC4R L325F, ref Xiang Z, Biochemistry, 2010): 70.3 % of WT
- Binding Bmax (% of WT) (MC4R N62S, HEK293 cell line, ref Huang H, Int J Biol Sci, 2014): 25.0 % of WT
- Binding Bmax (% of WT) (MC4R N62S, ref Tao YX, Endocrinology, 2003): 5.0 % of WT
- Binding Bmax (% of WT) (MC4R N62S, ref Xiang Z, Biochemistry, 2006): 1.4 % of WT
- Binding Bmax (% of WT) (MC4R N62S, ref Yeo GS, Hum Mol Genet, 2003): 20.0 % of WT
- Binding Bmax (% of WT) (MC4R N97D, ref Xiang Z, Biochemistry, 2006): 8.9 % of WT
- Binding Bmax (% of WT) (MC4R N97D, ref Yeo GS, Hum Mol Genet, 2003): 10.5 % of WT
- Binding Bmax (% of WT) (MC4R N274S, ref Tao YX, Endocrinology, 2003): 144.0 % of WT
- Binding Bmax (% of WT) (MC4R N274S, ref Xiang Z, Biochemistry, 2006): 66.7 % of WT
- Binding Bmax (% of WT) (MC4R P48S, ref Tao YX, Endocrinology, 2003): 79.0 % of WT
- Binding Bmax (% of WT) (MC4R P48S, ref Xiang Z, Biochemistry, 2010): 48.6 % of WT
- Binding Bmax (% of WT) (MC4R P78L, HEK293 cell line, ref Huang H, Int J Biol Sci, 2014): 0.0 % of WT
- Binding Bmax (% of WT) (MC4R P78L, ref Nijenhuis WA, J Biol Chem, 2003): 0.9 % of WT
- Binding Bmax (% of WT) (MC4R P78L, ref Tao YX, Endocrinology, 2003): 0.0 % of WT
- Binding Bmax (% of WT) (MC4R P78L, ref Xiang Z, Biochemistry, 2006): 0.556 % of WT
- Binding Bmax (% of WT) (MC4R P299H, ref Roubert P, J Endocrinol, 2010): 0.0 % of WT
- Binding Bmax (% of WT) (MC4R P299H, ref Xiang Z, Biochemistry, 2006): 1.2 % of WT
- Binding Bmax (% of WT) (MC4R P299L, ref Xiang Z, Biochemistry, 2010): 2.4 % of WT
- Binding Bmax (% of WT) (MC4R R305W, ref Roubert P, J Endocrinol, 2010): 193.9 % of WT
- Binding Bmax (% of WT) (MC4R S58C, ref Roubert P, J Endocrinol, 2010): 27.6 % of WT
- Binding Bmax (% of WT) (MC4R S58C, ref Tao YX, Endocrinology, 2003): 14.0 % of WT
- Binding Bmax (% of WT) (MC4R S58C, ref Xiang Z, Biochemistry, 2006): 22.2 % of WT
- Binding Bmax (% of WT) (MC4R S94R, ref Xiang Z, Biochemistry, 2010): 0.135 % of WT
- Binding Bmax (% of WT) (MC4R S295P, ref Tao YX, J Clin Endocrinol Metab, 2005): 129.0 % of WT
- Binding Bmax (% of WT) (MC4R S295P, ref Xiang Z, Biochemistry, 2010): 162.2 % of WT
- Binding Bmax (% of WT) (MC4R T112M, ref Nijenhuis WA, J Biol Chem, 2003): 100.0 % of WT
- Binding Bmax (% of WT) (MC4R T112M, ref Tao YX, J Clin Endocrinol Metab, 2005): 130.0 % of WT
- Binding Bmax (% of WT) (MC4R V50M, ref Roubert P, J Endocrinol, 2010): 69.4 % of WT
- Binding Bmax (% of WT) (MC4R V50M, ref Tao YX, Endocrinology, 2003): 74.0 % of WT
- Binding Bmax (% of WT) (MC4R V50M, ref Xiang Z, Biochemistry, 2010): 59.5 % of WT
- Binding Bmax (% of WT) (MC4R V95I, ref Xiang Z, Biochemistry, 2006): 0.7 % of WT
- Binding Bmax (% of WT) (MC4R V103I, ref Ho G, J Biol Chem, 1999): 123.3 % of WT
- Binding Bmax (% of WT) (MC4R V103I, ref Xiang Z, Biochemistry, 2006): 100.0 % of WT
- Binding Bmax (% of WT) (MC4R Y302F, ref Roth CL, Endocrine, 2009): 80.0 % of WT
- Binding Bmax (% of WT) (MC4R Y332H, ref Santoro N, BMC Med Genet, 2009): 100.0 % of WT
